# Test results: patent US9216972B2, “Tricyclic heterocyclic compounds” (Bristol-Myers Squibb Company, priority 2009, dated 2015)
# Tests used:
# [1] = biological target: S1P3 (membranes from EDG3-Ga15-bla HEK293T cells) (Homo sapiens (Human), UniProt Q99500); experiment: Receptor [35S] GTPγS Binding Assay, S1P3; format: biochemical; conditions: EDG3-Ga15-bla HEK293T cell membranes; rounded to two digits
# Procedure: (§1) Receptor [35S] GTPγS Binding Assays
# (§2) Compounds were loaded in a 384 Falcon v-bottom plate (0.5 μl/well in a 11 point, 3-fold dilution). Membranes prepared from S1P1/CHO cells or EDG3-Ga15-bla HEK293T cells were added to the compound plate (40 μl/well, final protein 3 μg/well) with multidrop. [^35S]GTP (1250 Ci/mmol, Perkin Elmer) was diluted in assay buffer: 20 mM HEPES, pH7.5, 10 mM MgCl2, 150 mM NaCl, 1 mM EGTA, 1 mM DTT, 10 μM GDP, 0.1% fatty acid free BSA, and 10 μg/ml Saponin to 0.4 nM. 40 μl of the [^35S] GTP solution was added to the compound plate with a final concentration of 0.2 nM. The reaction was kept at room temperature for 45 min. At the end of incubation, all the mixtures in the compound plate were transferred to Millipore 384-well FB filter plates via the Velocity11 Vprep liquid handler. The filter plate was washed with water 4 times by using the manifold Embla plate washer and dried at 60° C. for 45 min. MicroScint 20 scintillation fluid (30 μl) was added to each well for counting on the Packard TopCount. EC50 is defined as the agonist concentration that corresponds to 50% of the Ymax (maximal response) obtained for each individual compound tested. The results in Table B were rounded to two digits.
# [2] = biological target: S1P1 (membranes from S1P1/CHO cells) (Homo sapiens (Human), UniProt P21453); experiment: Receptor [35S] GTPγS Binding Assay, S1P1; format: biochemical; conditions: S1P1/CHO cell membranes; rounded to two digits
# S1P1 (membranes from S1P1/CHO cells), sequence (P21453 whole entry): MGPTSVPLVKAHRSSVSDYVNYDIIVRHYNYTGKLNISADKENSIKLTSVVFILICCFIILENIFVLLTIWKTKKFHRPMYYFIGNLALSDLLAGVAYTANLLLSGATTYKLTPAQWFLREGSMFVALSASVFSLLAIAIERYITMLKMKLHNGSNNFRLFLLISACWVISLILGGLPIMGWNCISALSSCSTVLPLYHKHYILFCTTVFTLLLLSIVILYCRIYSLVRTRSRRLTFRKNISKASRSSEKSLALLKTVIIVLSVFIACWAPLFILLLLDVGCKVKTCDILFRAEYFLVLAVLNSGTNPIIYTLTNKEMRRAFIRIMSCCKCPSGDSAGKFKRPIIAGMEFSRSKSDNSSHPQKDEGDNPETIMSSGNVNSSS
# Procedure: as §1, §2
# [3] = biological target: human S1P1 (Homo sapiens (Human), UniProt P21453); experiment: S1P1 Binding Assay (33P-S1P radioligand competition); conditions: membranes from CHO cells expressing human S1P1; 0.03 nM 33P-S1P; rounded to two digits
# human S1P1, sequence (P21453 whole entry): as above
# Procedure: Membranes were prepared from CHO cells expressing human S1P1. Cells pellets (1×10^8cells/pellet) were suspended in buffer containing 20 mM HEPES, pH 7.5, 50 mM NaCl, 2 mM EDTA and Protease Inhibitor cocktail (Roche), and disrupted on ice using the Polytron homogenizer. The homogenate was centrifuged at 20,000 rpm (48,000 g) and the supernatant was discarded. The membrane pellets were resuspended in buffer containing 50 mM HEPES, pH 7.5, 100 mM NaCl, 1 mM MgCl2, 2 mM EDTA and stored in aliquots at −80° C. after protein concentration determination.
# Membranes (2 μg/well) and 0.03 nM final concentration of ^33P-S1P ligand (1 mCi/ml, American Radiolabeled Chemicals) diluted in assay buffer (50 mM HEPES, pH7.4, 5 mM MgCl2, 1 mM CaCl2, 0.5% fatty acid free BSA, 1 mM NaF) were added to the compound plates (384 Falcon v-bottom plate (0.5 μl/well in a 11 point, 3-fold dilution). Binding was performed for 45 minutes at room temperature, terminated by collecting the membranes onto 384-well Millipore FB filter plates, and radioactivity was measured by TopCount. The competition data of the test compounds over a range of concentrations was plotted as percentage inhibition of radioligand specific binding. The IC50 is defined as the concentration of competing ligand needed to reduce specific binding by 50%.
# [4] = system: circulating blood lymphocytes; experiment: Blood Lymphocyte Reduction Assay (BLR) in Rodents; format: in vivo; conditions: Lewis rats, oral, versus vehicle (PEG300) group
# Procedure: Blood Lymphocyte Reduction Assay (BLR) in Rodents
# Lewis rats were dosed orally with test article (as a solution or suspension in the vehicle) or vehicle alone (polyethylene glycol 300, “PEG300”). Blood was drawn at 4 hr and 24 h by retro-orbital bleeding. Blood lymphocyte counts were determined on an ADVIA 120 Hematology Analyzer (Siemens Healthcare Diagnostics). The results were measured as a reduction in the percentage of circulating lymphocytes as compared to the vehicle treated group at the 4 hr and 24 hr measurement. The results represent the average results of all animals within each treatment group (n=3-4).
# S1P3 (membranes from EDG3-Ga15-bla HEK293T cells), sequence (Q99500 whole entry): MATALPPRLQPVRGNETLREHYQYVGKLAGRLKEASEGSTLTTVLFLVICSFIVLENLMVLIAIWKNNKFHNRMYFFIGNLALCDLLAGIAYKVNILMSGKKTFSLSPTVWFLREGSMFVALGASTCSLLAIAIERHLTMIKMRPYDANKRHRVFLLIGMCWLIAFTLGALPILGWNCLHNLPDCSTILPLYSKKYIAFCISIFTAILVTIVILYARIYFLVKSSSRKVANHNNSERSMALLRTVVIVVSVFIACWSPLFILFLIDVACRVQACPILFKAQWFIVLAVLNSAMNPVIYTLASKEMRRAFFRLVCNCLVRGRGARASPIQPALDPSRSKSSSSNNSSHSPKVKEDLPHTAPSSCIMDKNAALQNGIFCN
Structure (SMILES),EC50 [1] [nM],EC50 [2] [nM],IC50 [3] [nM],% Reduction in Lymphocytes at 4 hr. ([4]; dose 1.0 mg/kg) [%],% Reduction in Lymphocytes at 4 hr. ([4]; dose 3.0 mg/kg) [%]
"CC(N)(CO)CCc1ccc2c(c1)CCc1c-2noc1-c1noc(-c2ccccc2)c1C(F)(F)F (single isomer, unassigned) [Example 93, 2-amino-2-methyl-4-(3-(5-phenyl-4-(trifluoromethyl)isoxazol-3-yl)-4,5-dihydronaphtho[1,2-c]isoxazol-7-yl)butan-1-ol]",> 63000,40,22,–,–
"CC(N)(CCc1ccc2c(c1)CCc1c-2noc1-c1noc(-c2ccccc2)c1C(F)(F)F)C(=O)O (single isomer, unassigned) [Example 94, 2-amino-2-methyl-4-(3-(5-phenyl-4-(trifluoromethyl)isoxazol-3-yl)-4,5-dihydronaphtho[1,2-c]isoxazol-7-yl)butanoic acid]",16200,12,16,–,–
"N#CC1(NC(=O)[C@H](O)c2ccc3c(c2)CCc2c-3noc2-c2noc(-c3ccccc3)c2C(F)(F)F)CC1 (stereo in doubt) [Example 132, N-(1-cyanocyclopropyl)-2-hydroxy-2-(3-(5-phenyl-4-(trifluoromethyl)isoxazol-3-yl)-4,5-dihydronaphtho[1,2-c]isoxazol-7-yl)acetamide]",8500,1.7,4.1,–,–
"CCCc1ccc(-c2onc3c2COc2cc(CN4CC(C(=O)O)C4)ccc2-3)cc1 [Example 2, 1-((3-(4-Propylphenyl)-4H-chromeno[4,3-c]isoxazol-7-yl)methyl)azetidine-3-carboxylic acid]",8200,1.2,1.2,65,–
"CCCc1ccc(-c2noc3c2COc2cc(CN4CC(C(=O)O)C4)ccc2-3)cc1 [Example 3, 1-((3-(4-Propylphenyl)-4H-chromeno[3,4-d]isoxazol-7-yl)methyl)azetidine-3-carboxylic acid]",1300,1.3,1.3,85,–
"CC(C)Cc1onc(-c2onc3c2CCc2cc(CN4CC(C(=O)O)C4)ccc2-3)c1C(F)(F)F [Example 5, 1-((3-(5-Isobutyl-4-(trifluoromethyl)isoxazol-3-yl)-4,5-dihydronaphtho[1,2-c]isoxazol-7-yl)methyl)azetidine-3-carboxylic acid]",1500,0.74,0.57,83,–
"O=C(O)C1CN(Cc2ccc3c(c2)CCc2c-3noc2-c2noc(-c3ccccc3)c2C(F)(F)F)C1 [Example 6, 1-((3-(5-Phenyl-4-(trifluoromethyl)isoxazol-3-yl)-4,5-dihydronaphtho[1,2-c]isoxazol-7-yl)methyl)azetidine-3-carboxylic acid]",4400,0.59,0.66,86,–
"O=C(O)C1CN(Cc2ccc3c(c2)CCc2c-3noc2-c2onc(-c3ccccc3)c2C(F)(F)F)C1 [Example 7, 1-((3-(3-Phenyl-4-(trifluoromethyl)isoxazol-5-yl)-4,5-dihydronaphtho[1,2-c]isoxazol-7-yl)methyl)azetidine-3-carboxylic acid]",> 31000,57,57,–,–
"CCCc1ccc(-c2onc3c2CCc2cc(OC[C@H](O)CO)ccc2-3)cc1 [Example 12, (R)-3-(3-(4-Propylphenyl)-4,5-dihydronaphtho[1,2-c]isoxazol-7-yloxy)propane-1,2-diol]",> 31000,6300,390,–,–
"CC(C)Oc1ccc(-c2onc3c2CCc2cc(CN4CC(C(=O)O)C4)ccc2-3)cc1C(F)(F)F [Example 14, 1-((3-(4-Isopropoxy-3-(trifluoromethyl)phenyl)-4,5-dihydronaphtho[1,2-c]isoxazol-7-yl)methyl)azetidine-3-carboxylic acid]",> 31000,11,6.7,–,–
"CC(C)Oc1ccc(-c2onc3c2CCc2cc(CNCCC(=O)O)ccc2-3)cc1C#N [Example 16, 3-((3-(3-Cyano-4-isopropoxyphenyl)-4,5-dihydronaphtho[1,2-c]isoxazol-7-yl)methylamine)propanoic acid]",11000,24,24,–,–
"CCCc1ccc(-c2noc3c2CCc2cc(CN4CC(C(=O)O)C4)ccc2-3)cc1 [Example 20, 1-((3-(4-Propylphenyl)-4,5-dihydronaphtho[2,1-d]isoxazol-7-yl)methyl)azetidine-3-carboxylic acid]",> 31000,220,56,–,–
"O=C(O)C1CN(Cc2ccc3c(c2)CCc2c-3n[nH]c2-c2onc(-c3ccccc3)c2C(F)(F)F)C1 [Example 22, 1-((3-(3-Phenyl-4-(trifluoromethyl)isoxazol-5-yl)-4,5-dihydro-2H-benzo[g]indazol-7-yl)methyl)azetidine-3-carboxylic acid]",> 63000,980,980,–,–
"CC(C)Cc1ccc(-c2onc3c2CCc2cc(CN4CC(C(=O)O)C4)ccc2-3)cc1C(F)(F)F [Example 23, 1-((3-(4-Isobutyl-3-(trifluoromethyl)phenyl)-4,5-dihydronaphtho[1,2-c]isoxazol-7-yl)methyl)azetidine-3-carboxylic acid]",3500,0.73,0.98,–,76
"OCc1ccc2c(c1)CCc1c-2noc1-c1cccc(C(F)(F)F)c1 [Example 24, (3-(3-(Trifluoromethyl)phenyl)-4,5-dihydronaphtho[1,2-c]isoxazol-7-yl)methanol]",> 31000,3200,3200,–,–
"Oc1ccc2c(c1)CCc1c-2noc1-c1cc(-c2ccccc2)on1 [Example 32, 3-(5-Phenylisoxazol-3-yl)-4,5-dihydronaphtho[1,2-c]isoxazol-7-ol]",> 63000,15000,15000,–,–
"Oc1ccc2c(c1)CCc1c-2noc1-c1cc(-c2ccccc2Cl)n(-c2ccccc2)n1 [Example 33, 3-(5-(2-Chlorophenyl)-1-phenyl-1H-pyrazol-3-yl)-4,5-dihydronaphtho[1,2-c]isoxazol-7-ol]",> 31000,250,250,–,–
"CC(C)Cc1ccc(-c2onc3c2CCc2cc(O)ccc2-3)cc1 [Example 41, 3-(4-Isobutylphenyl)-4,5-dihydronaphtho[1,2-c]isoxazol-7-ol]",> 63000,1600,1600,–,–
"O=C(O)C1CN(Cc2ccc3c(c2)OCc2c-3noc2-c2onc(-c3ccccc3)c2C(F)(F)F)C1 [Example 61, 1-((3-(3-phenyl-4-(trifluoromethyl)isoxazol-5-yl)-4H-chromeno[4,3-c]isoxazol-7-yl)methyl)-azetidine-3-carboxylic acid]",> 31000,0.32,1.6,–,–
O=C(O)C1CN(Cc2cc3c(cc2F)-c2noc(-c4onc(-c5ccccc5)c4C(F)(F)F)c2CC3)C1 [Example 67],14700,0.76,5.6,–,–
"O=C(O)[C@H]1CCCN(Cc2ccc3c(c2)CCc2c-3noc2-c2noc(-c3ccccc3)c2C(F)(F)F)C1 [Example 70, (3S)-1-((3-(5-Phenyl-4-(trifluoromethyl)isoxazol-3-yl)-4,5-dihydronaphtho[1,2-c]isoxazol-7-yl)methyl)piperidine-3-carboxylic acid]",4660,49,22,–,–
OCC1COCCN1Cc1ccc2c(c1)CCc1c-2noc1-c1noc(-c2ccccc2)c1C(F)(F)F (centres unmarked) [Example 74],> 63000,410,600,–,–
